From patent US20240109918A1, “HETEROCYCLIC COMPOUNDS AND USES THEREOF” (Kumquat Biosciences Inc., priority 2022, published 2024)

Columns and labels:
KRASG12D = molecular target: T1, KRASG12D (Homo sapiens, UniProt P01116, G12D); assay: Bio-Biochem-PPI-HTRF Ras-SOS1 interaction assay (KRAS G12D); type: biochemical; settings: 5 nM
T1 construct: made in house; host or cells: E. coli BL21 (DE3)
Summary of the method: (§1)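 Inhibition of His-hSOS1 binding to GST-tagged wild-type or G12D K-Ras is read as HTRF ratio (665/620 nm) following incubation of about 10 minutes or longer, and IC50 values are fitted from duplicate six-point titrations.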

KRASwt = molecular target: T2, KRASwt (Homo sapiens, UniProt P01116); assay: Bio-Biochem-PPI-HTRF Ras-SOS1 interaction assay (KRAS wt); type: biochemical; settings: 5 nM
T2 construct: made in house; host or cells: E. coli BL21 (DE3)
T2 sequence (P01116 1-188 isoform P01116-2): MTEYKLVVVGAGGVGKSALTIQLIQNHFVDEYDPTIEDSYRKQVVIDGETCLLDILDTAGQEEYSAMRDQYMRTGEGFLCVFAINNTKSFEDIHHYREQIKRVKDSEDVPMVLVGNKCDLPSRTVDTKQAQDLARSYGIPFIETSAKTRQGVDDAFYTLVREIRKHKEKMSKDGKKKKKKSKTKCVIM
Summary of the method: as §1

T1 sequence (P01116 1-188 isoform P01116-2 G12D): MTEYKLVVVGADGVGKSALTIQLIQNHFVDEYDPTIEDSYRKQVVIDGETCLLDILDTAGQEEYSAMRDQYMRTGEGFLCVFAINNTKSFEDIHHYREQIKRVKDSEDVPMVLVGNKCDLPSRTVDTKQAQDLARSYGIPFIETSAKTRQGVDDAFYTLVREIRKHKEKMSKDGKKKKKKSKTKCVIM

For `Nc1nc2c(-c3c(Cl)cc4c(N5CCCC6(CCNC6)C5)nc(OC[C@@]56CCCN5C[C@H](F)C6)nc4c3F)ccc(F)c2s1` (stereo partly drawn) [compound 130, 4-(6-chloro-8-fluoro-2-(((2R,7aS)-2-fluorotetrahydro-1H-pyrrolizin-7a(5H)-yl)methoxy)-4-(2,7-diazaspiro[4.5]decan-7-yl)quinazolin-7-yl)-7-fluorobenzo[d]thiazol-2-amine], the IC50 (KRASG12D) was < 5 µM and the IC50 (KRASwt) was < 5 µM.

In the case of `CN(C)C/C=C/C(=O)N1CC2(CCCCN(c3nc(OC[C@@]45CCCN4C[C@H](F)C5)nc4c(F)c(-c5ccc(F)c6sc(N)c(C#N)c56)c(Cl)cc34)C2)C1` [compound 188, 2-amino-4-(6-chloro-4-(2-((E)-4-(dimethylamino)but-2-enoyl)-2,6-diazaspiro[3.6]decan-6-yl)-8-fluoro-2-(((2R,7aS)-2-fluorotetrahydro-1H-pyrrolizin-7a(5H)-yl)methoxy)quinazolin-7-yl)-7-fluorobenzo[b]thiophene-3-carbonitrile], the IC50 (KRASG12D) is reported as < 5 µM and the IC50 (KRASwt) is reported as < 5 µM.

`N#Cc1c(N)sc2c(F)ccc(-c3c(Cl)cc4c(N5CCCC6(CN(C(=O)C7CC7)C6)C5)nc(OC[C@@]56CCCN5C[C@H](F)C6)nc4c3F)c12` [compound 120, 2-amino-4-(6-chloro-4-(2-(cyclopropanecarbonyl)-2,6-diazaspiro[3.5]nonan-6-yl)-8-fluoro-2-(((2R,7aS)-2-fluorotetrahydro-1H-pyrrolizin-7a(5H)-yl)methoxy)quinazolin-7-yl)-7-fluorobenzo[b]thiophene-3-carbonitrile] was tested, and the IC50 (KRASG12D) was < 5 µM and the IC50 (KRASwt) was < 5 µM.

`N#Cc1c(N)sc2c(F)ccc(-c3c(Cl)cc4c(N5CCCCC6(CN(C(=O)C(F)(F)C(F)(F)F)C6)C5)nc(OC[C@@]56CCCN5C[C@H](F)C6)nc4c3F)c12` [compound 202, 2-amino-4-(6-chloro-8-fluoro-2-(((2R,7aS)-2-fluorotetrahydro-1H-pyrrolizin-7a(5H)-yl)methoxy)-4-(2-(2,2,3,3,3-pentafluoropropanoyl)-2,6-diazaspiro[3.6]decan-6-yl)quinazolin-7-yl)-7-fluorobenzo[b]thiophene-3-carbonitrile] was tested, and the IC50 (KRASG12D) was < 5 µM and the IC50 (KRASwt) was < 5 µM.

`N#CCC1(C(=O)N2CC3(CCCCN(c4nc(OC[C@@]56CCCN5C[C@H](F)C6)nc5c(F)c(-c6ccc(F)c7sc(N)c(C#N)c67)c(Cl)cc45)C3)C2)CCC1` [compound 216, 2-amino-4-(6-chloro-4-(2-(1-(cyanomethyl)cyclobutane-1-carbonyl)-2,6-diazaspiro[3.6]decan-6-yl)-8-fluoro-2-(((2R,7aS)-2-fluorotetrahydro-1H-pyrrolizin-7a(5H)-yl)methoxy)quinazolin-7-yl)-7-fluorobenzo[b]thiophene-3-carbonitrile] was tested, and the IC50 (KRASG12D) was < 5 µM and the IC50 (KRASwt) was < 5 µM.

`N#Cc1c(N)sc2c(F)ccc(-c3c(Cl)cc4c(N5CCCCC6(CN(C(=O)N7CC(C#N)C7)C6)C5)nc(OC[C@@]56CCCN5C[C@H](F)C6)nc4c3F)c12` [compound 274, 1-(6-(7-(2-amino-3-cyano-7-fluorobenzo[b]thiophen-4-yl)-6-chloro-8-fluoro-2-(((2R,7aS)-2-fluorotetrahydro-1H-pyrrolizin-7a(5H)-yl)methoxy)quinazolin-4-yl)-2,6-diazaspiro[3.6]decane-2-carbonyl)azetidine-3-carbonitrile] was tested, and the IC50 (KRASG12D) was < 5 µM and the IC50 (KRASwt) was < 5 µM.

For `N#Cc1c(N)sc2c(F)ccc(-c3c(Cl)cc4c(N5CCCCC6(C5)CN(S(=O)(=O)C5CC5)C6)nc(OC[C@@]56CCCN5C[C@H](F)C6)nc4c3F)c12` [compound 195, 2-amino-4-(6-chloro-4-(2-(cyclopropylsulfonyl)-2,6-diazaspiro[3.6]decan-6-yl)-8-fluoro-2-(((2R,7aS)-2-fluorotetrahydro-1H-pyrrolizin-7a(5H)-yl)methoxy)quinazolin-7-yl)-7-fluorobenzo[b]thiophene-3-carbonitrile], the IC50 (KRASG12D) was < 5 µM and the IC50 (KRASwt) was < 5 µM.

For `C#Cc1c(F)ccc2cc(O)cc(-c3nc4c(cc3F)c(N3CCOC5(CNC5)C3)nc(=O)n4-c3c(C)ccnc3C(C)C)c12` [compound 170, 7-(8-ethynyl-7-fluoro-3-hydroxynaphthalen-1-yl)-6-fluoro-1-(2-isopropyl-4-methylpyridin-3-yl)-4-(5-oxa-2,8-diazaspiro[3.5]nonan-8-yl)pyrido[2,3-d]pyrimidin-2(1H)-one], the IC50 (KRASG12D) was ≥ 5 µM and the IC50 (KRASwt) was ≥ 5 µM.

`N#Cc1c(N)sc2c(F)ccc(-c3c(Cl)cc4c(N5CCC(OC(F)F)CC6(CN(C(=O)[C@@H]7CC7(F)F)C6)C5)nc(OC[C@@]56CCCN5C[C@H](F)C6)nc4c3F)c12` (stereo partly drawn) [compound 313, 2-amino-4-(6-chloro-4-(2-((S)-2,2-difluorocyclopropane-1-carbonyl)-9-(difluoromethoxy)-2,6-diazaspiro[3.6]decan-6-yl)-8-fluoro-2-(((2R,7aS)-2-fluorotetrahydro-1H-pyrrolizin-7a(5H)-yl)methoxy)quinazolin-7-yl)-7-fluorobenzo[b]thiophene-3-carbonitrile] was tested, and the IC50 (KRASG12D) was < 5 µM and the IC50 (KRASwt) was < 5 µM.

In the case of `Nc1nc2c(-c3c(Cl)cc4c(N5CCOC6(C5)CN(S(=O)(=O)F)C6)nc(OC[C@@]56CCCN5C[C@H](F)C6)nc4c3F)ccc(F)c2s1` [compound 179, 8-(7-(2-amino-7-fluorobenzo[d]thiazol-4-yl)-6-chloro-8-fluoro-2-(((2R,7aS)-2-fluorotetrahydro-1H-pyrrolizin-7a(5H)-yl)methoxy)quinazolin-4-yl)-5-oxa-2,8-diazaspiro[3.5]nonane-2-sulfonyl fluoride], the IC50 (KRASG12D) is reported as ≥ 5 µM and the IC50 (KRASwt) is reported as < 5 µM.

With `N#Cc1c(N)sc2c(F)ccc(-c3c(Cl)cc4c(N5CCCCC6(CN(C(=O)[C@@H]7CCOC7)C6)C5)nc(OC[C@@]56CCCN5C[C@H](F)C6)nc4c3F)c12` [compound 230, 2-amino-4-(6-chloro-8-fluoro-2-(((2R,7aS)-2-fluorotetrahydro-1H-pyrrolizin-7a(5H)-yl)methoxy)-4-(2-((R)-tetrahydrofuran-3-carbonyl)-2,6-diazaspiro[3.6]decan-6-yl)quinazolin-7-yl)-7-fluorobenzo[b]thiophene-3-carbonitrile] the IC50 (KRASG12D) was < 5 µM and the IC50 (KRASwt) was < 5 µM.

With `N#Cc1c(N)sc2c(F)ccc(-c3c(Cl)cc4c(N5CCC(C(F)F)CC6(CN(C(=O)[C@@H]7CC7(F)F)C6)C5)nc(OC[C@@]56CCCN5C[C@H](F)C6)nc4c3F)c12` (stereo partly drawn) [compound 254, 2-amino-4-(6-chloro-4-(2-((S)-2,2-difluorocyclopropane-1-carbonyl)-9-(difluoromethyl)-2,6-diazaspiro[3.6]decan-6-yl)-8-fluoro-2-(((2R,7aS)-2-fluorotetrahydro-1H-pyrrolizin-7a(5H)-yl)methoxy)quinazolin-7-yl)-7-fluorobenzo[b]thiophene-3-carbonitrile] the IC50 (KRASG12D) was < 5 µM and the IC50 (KRASwt) was < 5 µM.

`CC(C)(O)C(F)(F)C(=O)N1CC2(CCCCN(c3nc(OC[C@@]45CCCN4C[C@H](F)C5)nc4c(F)c(-c5ccc(F)c6sc(N)c(C#N)c56)c(Cl)cc34)C2)C1` [compound 339, 2-amino-4-(6-chloro-4-(2-(2,2-difluoro-3-hydroxy-3-methylbutanoyl)-2,6-diazaspiro[3.6]decan-6-yl)-8-fluoro-2-(((2R,7aS)-2-fluorotetrahydro-1H-pyrrolizin-7a(5H)-yl)methoxy)quinazolin-7-yl)-7-fluorobenzo[b]thiophene-3-carbonitrile] was tested, and the IC50 (KRASG12D) was < 5 µM and the IC50 (KRASwt) was < 5 µM.

`N#Cc1c(N)sc2c(F)ccc(-c3c(Cl)cc4c(N5CCCCC6(CN(C(=O)C7(O)COC7)C6)C5)nc(OC[C@@]56CCCN5C[C@H](F)C6)nc4c3F)c12` [compound 327, 2-amino-4-(6-chloro-8-fluoro-2-(((2R,7aS)-2-fluorotetrahydro-1H-pyrrolizin-7a(5H)-yl)methoxy)-4-(2-(3-hydroxyoxetane-3-carbonyl)-2,6-diazaspiro[3.6]decan-6-yl)quinazolin-7-yl)-7-fluorobenzo[b]thiophene-3-carbonitrile] was tested, and the IC50 (KRASG12D) was < 5 µM and the IC50 (KRASwt) was < 5 µM.

`CC1(O)CCN(c2nc(OC[C@@]34CCCN3C[C@H](F)C4)nc3c(F)c(-c4ccc(F)c5sc(N)c(C#N)c45)c(Cl)cc23)CC2(CN(C(=O)[C@@H]3CC3(F)F)C2)C1` (stereo partly drawn) [compound 218, 2-amino-4-(6-chloro-4-(2-((S)-2,2-difluorocyclopropane-1-carbonyl)-9-hydroxy-9-methyl-2,6-diazaspiro [3.6]decan-6-yl)-8-fluoro-2-(((2R,7aS)-2-fluorotetrahydro-1H-pyrrolizin-7a(5H)-yl)methoxy)quinazolin-7-yl)-7-fluorobenzo[b]thiophene-3-carbonitrile] was tested, and the IC50 (KRASG12D) was < 5 µM and the IC50 (KRASwt) was < 5 µM.

With `C#Cc1c(F)ccc2cc(O)cc(-c3ncc4c(N5CCOCC6(CN(C(=O)[C@@H]7CC7(F)F)C6)C5)nc(OC[C@@]56CCCN5C[C@H](F)C6)nc4c3F)c12` [compound 301, ((S)-2,2-difluorocyclopropyl) (9-(7-(8-ethynyl-7-fluoro-3-hydroxynaphthalen-1-yl)-8-fluoro-2-(((2R,7aS)-2-fluorotetrahydro-1H-pyrrolizin-7a(5H)-yl)methoxy)pyrido[4,3-d]pyrimidin-4-yl)-6-oxa-2,9-diazaspiro[3.6]decan-2-yl)methanone] the IC50 (KRASG12D) was < 5 µM and the IC50 (KRASwt) was < 5 µM.

For `C[C@H](Oc1nc(N2CCCC3(CNC3)C2)c2cc(Cl)c(-c3ccc(F)c4sc(N)c(C#N)c34)c(F)c2n1)[C@@H]1CCCN1C` [compound 122, 2-amino-4-(6-chloro-8-fluoro-2-((S)-1-((S)-1-methylpyrrolidin-2-yl)ethoxy)-4-(2,6-diazaspiro[3.5]nonan-6-yl)quinazolin-7-yl)-7-fluorobenzo[b]thiophene-3-carbonitrile], the IC50 (KRASG12D) was < 5 µM and the IC50 (KRASwt) was < 5 µM.
